Consider ten molecules from PubChem BioAssay AID434932 (The Scripps Research Institute Molecular Screening Center, 2010).

The subject of the test is NIH 3T3 STAT1-luciferase reporter, IFN-gamma, luminescence. As to the kind of experiment: STAT1 reporter activators in fibroblasts, late-stage follow-up, cell-based, luminescence, NIH 3T3, dose response, powders (AID 434932).

Activity calls are given as the source filed them.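 Rule for the calls: active = STAT1 activated, EC50 at most 10 µM; inactive = Over 10 µM EC50.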 Where only a bound is given, the exact number is not on record here.

As to `O=C(/C=C/Nc1ccccc1F)c1ccc(Br)cc1`, the EC50 was > 55.7 µM (inactive).

As for `O=C(Nc1nc2ccccc2s1)c1cc2ccccc2s1`, the EC50 was 0.835 µM.

With `COc1ccc2[nH]c3c(c2c1)CCn1c-3nc2ccccc2c1=O`, the EC50 is less than 0.00283 µM.

Regarding `Cc1nnc(SCC(=O)Nc2ccc(-c3nc4ccccc4s3)cc2)s1`, the EC50 was > 55.7 µM (inactive).

Consider `CC(=O)NC(=S)Nc1sc2c(c1C#N)CCCCC2`, for which the EC50 was > 55.7 µM (inactive).

Regarding `Cc1cc(-c2ccc(F)cc2)n2ncc(-c3ccccc3)c2n1`, the EC50 was 0.0643 µM.

With `COc1ccc(-c2cc(C)nc3c(-c4ccccc4)cnn23)cc1`, the EC50 was 4.04 µM.

For the molecule `COc1ccc(-c2csc(N3C(=O)CNC3=S)n2)cc1`, the EC50 was 2.01 µM.

In the case of `CCN(CC)c1ccc2cc(C(=O)Nc3ccccn3)c(=O)oc2c1`, the EC50 was 10 µM (inactive).

For `CCOC(=O)/C(C#N)=C/c1cc(C)n(-c2ccccc2)c1C`, the EC50 is 3.31 µM.

As a reminder, the EC50 is the concentration giving half of the maximal effect.
